Reference: PMC6017328, “Tetrasubstituted Imidazolium Salts as Potent Antiparasitic Agents against African and American Trypanosomiases” (Molecules : A Journal of Synthetic Chemistry and Natural …, 2018)
Where two headings read alike, the source gives them in different places.

Legend:
[1] = cited from earlier work
[2] = PAMPA-BBB assay (brain permeability); assay type: in vitro ADME, porcine; conditions: for Papp: pig, PAMPA, PBS:EtOH 70:30, n=3 ± S.D. in Table S5, read-out: PAMPA-BBB permeability (Pe), experimental value; for CNS Prediction: predictive penetration in the CNS from PAMPA-BBB Pe
Method: The in vitro permeability (Pe) of the tested compounds and fourteen reference drugs through a lipid extract of porcine brain membrane was assessed by using a parallel artificial membrane permeation assay. Commercial drugs and the target compounds were tested using a mixture of phosphate-buffered saline (PBS): EtOH 70:30. The assay was validated by comparing the experimental permeability with the reported values of the reference drugs.

[3] = test system: Bloodstream form T. brucei (strain 221); assay: T. brucei culturing and evaluation of trypanocidal activity (resazurin); assay type: cell-based; conditions: Trypanosoma brucei; for EC50: concentration reducing parasite growth by 50%, triplicate; for EC90: concentration reducing parasite growth by 90%
Method: Bloodstream form T. brucei (strain 221) were grown as described previously. […] Logarithmically growing T. brucei were diluted to 2.5 × 10^4 mL^−1 and aliquoted into 96-well plates. Then, compounds were added at a range of concentrations and the plates incubated at 37 °C. Each compound was tested in triplicate. Resazurin was added after 48 h and the plates incubated for a further 16 h. The plates were then read in a Spectramax plate reader. Results were analyzed using GraphPad Prism.

[4] = test system: T. cruzi epimastigotes (CL Brener stain); assay: T. cruzi culturing and evaluation of trypanocidal activity (resazurin); assay type: cell-based; conditions: Trypanosoma cruzi; for EC90: epimastigotes, CL Brener, growth reduced by 90%
Method: Activity was determined using 96-well plate assays. Cultures were diluted to 2.5 × 10^5 mL^−1, aliquoted in triplicate at a range of compound concentrations, and incubated for 4 days. Resazurin was added and the plates incubated for a further 3 days, then read in a Spectramax plate reader as outlined above.

L6 rat myoblast cells = assay: Cytotoxic activity against rat skeletal myoblast L6 cells; assay type: cell-based; conditions: 144 h; cytotoxicity, L6 rat myoblasts, 6 days
Method: Cytotoxicity was assessed using microtiter plates following a previously described protocol. Briefly, L6 cells were seeded at 1 × 10^4 mL^−1 in 200 μL of growth medium at different compound concentrations. The plates were incubated for 6 days at 37 °C and then 20 μL resazurin was added to each well. After a further 8 h incubation, fluorescence was determined using a Spectramax plate reader.

[5] = test system: Bloodstream form T. brucei (strain 221); conditions: read-out: EC50 (T. brucei); comparison drug; cited from earlier work
[6] = test system: T. cruzi epimastigotes (CL Brener stain); conditions: read-out: EC50 (T. cruzi); comparison drug; cited from earlier work

Papp [2] [×10⁻⁶ cm/s]	CNS Prediction [2]	BBB permeation (in words) ([2]; according to the limits of Di et al., low Pe < 1.89, uncertain 5.16 > Pe 10^−6 cm s^−1 > 1.89)	Compound	PAMPA-BBB permeability (Pe), bibliography value [1]	EC50 [3] [nM]	EC90 [3] [nM]	EC50 [4] [nM]	EC90 [4] [nM]	EC50 (L6 rat myoblast cells) [nM]	EC50 [5] [nM]	EC50 [6] [nM]
4.2	CNS+/-	–	Cc1ccc(-n2c[n+](C(C)(C)C)c(Cc3ccccc3)c2-c2ccccc2)cc1 [Compound 1a]	–	180 ± 10	280 ± 70	1850 ± 290	3410 ± 140	33900 ± 3300	–	–
4.9	CNS+/-	–	COc1ccc(-n2c[n+](-c3ccc(OC)cc3)c(Cc3ccccc3)c2-c2ccc(C)cc2)cc1 [Compound 1b]	–	40	50	440 ± 10	1290 ± 50	4600 ± 380	–	–
2.6	CNS+/-	–	COc1ccc(-n2c[n+](C(C)(C)C)c(Cc3ccc(C)cc3)c2-c2ccc(Cl)cc2)cc1 [Compound 1c]	–	180 ± 10	200 ± 10	1720 ± 390	2980 ± 190	9690 ± 580	–	–
2.4	CNS+/-	–	Cc1ccc(-n2c[n+](-c3ccc4ccccc4c3)c(Cc3ccccc3)c2-c2ccc(Cl)cc2)cc1 [Compound 1d]	–	70	90	540 ± 80	1000 ± 40	4090 ± 280	–	–
1.6	CNS-	low BBB permeation	Cc1ccc(-n2c[n+](CC(=O)[O-])c(Cc3ccccc3)c2-c2ccccc2)cc1 [Compound 1e]	–	5260 ± 10	6790 ± 90	> 20000	> 20000	> 130000	–	–

Continued, compound first:

Compound	Papp [2] [×10⁻⁶ cm/s]	CNS Prediction [2]	BBB permeation (in words) ([2]; according to the limits of Di et al., low Pe < 1.89, uncertain 5.16 > Pe 10^−6 cm s^−1 > 1.89)	PAMPA-BBB permeability (Pe), bibliography value [1]	EC50 [3] [nM]	EC90 [3] [nM]	EC50 [4] [nM]	EC90 [4] [nM]	EC50 (L6 rat myoblast cells) [nM]	EC50 [5] [nM]	EC50 [6] [nM]
CN/C(=N/CCSCc1nc[nH]c1C)NC#N [Cimetidine]	–	–	–	0.0 10-6 cm s-1	–	–	–	–	–	–	–
CN1C(C(=O)Nc2ccccn2)=C(O)c2ccccc2S1(=O)=O [Piroxicam, reference compound]	1.7 ± 0.03	–	–	–	–	–	–	–	–	–	–
CC1CS(=O)(=O)CCN1/N=C/c1ccc([N+](=O)[O-])o1 (stereo not shown) [nifurtimox]	–	–	–	–	–	–	–	–	–	~2000	~2000
